# Experimental data reported in ChEMBL document CHEMBL1201862, “PubChem BioAssay data set” (2004).
#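 Protocol summary: plate cells (96-well), add compound at 5 concentrations, incubate 48 h, interpolate endpoints linearly. GI50 is the concentration that inhibits growth by half.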 Calls of active or inactive are those of the source. No stated cut-off is given here; in the data, active = GI50 up to about 1.1 µM and inactive = higher.
# Columns and labels:
# Experiment in all cases: DTP human tumour cell line panel, 48 h
# SNB-19 = tested on: SNB-19
# TK-10 = tested on: TK-10
# U-251 = tested on: U-251
# SF-268 = tested on: SF-268
# MDA-N = tested on: MDA-N
# HCT-15 = tested on: HCT-15
# RPMI-8226 = tested on: RPMI-8226
# UACC-62 = tested on: UACC-62
# NCI-H226 = tested on: NCI-H226
# LOX IMVI = tested on: LOX IMVI
# A549 = tested on: A549
# OVCAR-4 = tested on: OVCAR-4
# HCT-116 = tested on: HCT-116
# SR = tested on: SR
# SK-MEL-2 = tested on: SK-MEL-2
# MDA-MB-435 = tested on: MDA-MB-435
# SK-MEL-28 = tested on: SK-MEL-28
# OVCAR-5 = tested on: OVCAR-5
# SNB-75 = tested on: SNB-75
# NCI-H460 = tested on: NCI-H460
# SN12C = tested on: SN12C
# NCI-H23 = tested on: NCI-H23
# SK-MEL-5 = tested on: SK-MEL-5
# ACHN = tested on: ACHN
# BT-549 = tested on: BT-549
# PC-3 = tested on: PC-3
# Malme-3M = tested on: Malme-3M
# HOP-62 = tested on: HOP-62
# SF-295 = tested on: SF-295
# UO-31 = tested on: UO-31
# SW-620 = tested on: SW-620
# COLO 205 = tested on: COLO 205
# MDA-MB-231 = tested on: MDA-MB-231
# M14 = tested on: M14
# T47D = tested on: T47D
# CCRF-CEM = tested on: CCRF-CEM
# MOLT-4 = tested on: MOLT-4
# HCC 2998 = tested on: HCC 2998
# HT-29 = tested on: HT-29
# HOP-92 = tested on: HOP-92
# UACC-257 = tested on: UACC-257
# 786-0 = tested on: 786-0
# SF-539 = tested on: SF-539
# MCF7 = tested on: MCF7
# EKVX = tested on: EKVX
# NCI-H522 = tested on: NCI-H522
# Hs-578T = tested on: Hs-578T
# OVCAR-3 = tested on: OVCAR-3
# OVCAR-8 = tested on: OVCAR-8
# DU-145 = tested on: DU-145
# NCI/ADR-RES = tested on: NCI/ADR-RES
# IGROV-1 = tested on: IGROV-1
# SK-OV-3 = tested on: SK-OV-3
# KM12 = tested on: KM12
# HL-60 = tested on: HL-60
# CAKI-1 = tested on: CAKI-1
smiles,measurement,setting,value
COc1ccc(C(=O)N2CCN(c3ccc4[nH]c(=O)oc4c3)CC2)cc1,GI50,SNB-19,> 100 µM (inactive)
same,GI50,TK-10,> 100 µM (inactive)
same,GI50,U-251,> 100 µM (inactive)
same,GI50,SF-268,> 100 µM (inactive)
same,GI50,MDA-N,> 100 µM (inactive)
same,GI50,HCT-15,> 100 µM
same,GI50,RPMI-8226,> 100 µM (inactive)
same,GI50,UACC-62,99.3 µM (inactive)
same,GI50,NCI-H226,> 100 µM (inactive)
same,GI50,LOX IMVI,> 100 µM (inactive)
same,GI50,A549,> 100 µM (inactive)
same,GI50,OVCAR-4,84.1 µM (inactive)
same,GI50,HCT-116,> 100 µM (inactive)
same,GI50,SR,92.5 µM (inactive)
same,GI50,SK-MEL-2,> 100 µM (inactive)
same,GI50,MDA-MB-435,> 100 µM (inactive)
same,GI50,SK-MEL-28,> 100 µM (inactive)
same,GI50,OVCAR-5,> 100 µM (inactive)
same,GI50,SNB-75,62.4 µM (inactive)
same,GI50,NCI-H460,> 100 µM (inactive)
same,GI50,SN12C,> 100 µM (inactive)
same,GI50,NCI-H23,> 100 µM (inactive)
same,GI50,SK-MEL-5,> 100 µM (inactive)
same,GI50,ACHN,69.8 µM (inactive)
same,GI50,BT-549,> 100 µM (inactive)
same,GI50,PC-3,> 100 µM (inactive)
same,GI50,Malme-3M,48.5 µM (inactive)
same,GI50,HOP-62,> 100 µM (inactive)
same,GI50,SF-295,> 100 µM (inactive)
same,GI50,UO-31,> 100 µM (inactive)
same,GI50,SW-620,> 100 µM (inactive)
same,GI50,COLO 205,> 100 µM (inactive)
same,GI50,MDA-MB-231,> 100 µM (inactive)
same,GI50,M14,> 100 µM (inactive)
same,GI50,T47D,> 100 µM (inactive)
same,GI50,CCRF-CEM,> 100 µM (inactive)
same,GI50,MOLT-4,> 100 µM (inactive)
same,GI50,HCC 2998,> 100 µM (inactive)
same,GI50,HT-29,> 100 µM (inactive)
same,GI50,HOP-92,> 100 µM (inactive)
same,GI50,UACC-257,> 100 µM (inactive)
same,GI50,786-0,> 100 µM (inactive)
same,GI50,SF-539,> 100 µM (inactive)
same,GI50,MCF7,> 100 µM (inactive)
same,GI50,EKVX,78.7 µM (inactive)
same,GI50,NCI-H522,53.1 µM (inactive)
same,GI50,Hs-578T,58.5 µM (inactive)
same,GI50,OVCAR-3,> 100 µM (inactive)
same,GI50,OVCAR-8,> 100 µM (inactive)
same,GI50,DU-145,> 100 µM (inactive)
same,GI50,NCI/ADR-RES,> 100 µM (inactive)
same,GI50,IGROV-1,99.1 µM (inactive)
same,GI50,SK-OV-3,> 100 µM (inactive)
same,GI50,KM12,> 100 µM (inactive)
same,GI50,HL-60,39.4 µM (inactive)
Cc1ccc(S(=O)(=O)N2C3C=CC(C3)[C@@H]2C(Cl)(Cl)Cl)cc1 (stereo not given in full),GI50,SNB-19,17.9 µM (inactive)
same,GI50,TK-10,18.7 µM (inactive)
same,GI50,U-251,15 µM (inactive)
same,GI50,SF-268,13.2 µM (inactive)
same,GI50,MDA-N,35 µM (inactive)
same,GI50,HCT-15,19.1 µM
same,GI50,RPMI-8226,3.09 µM (inactive)
same,GI50,UACC-62,14.6 µM (inactive)
same,GI50,NCI-H226,15 µM (inactive)
same,GI50,LOX IMVI,18.5 µM (inactive)
same,GI50,A549,18.7 µM (inactive)
same,GI50,OVCAR-4,15.2 µM (inactive)
same,GI50,HCT-116,10.8 µM (inactive)
same,GI50,SR,14.4 µM (inactive)
same,GI50,SK-MEL-2,7.36 µM (inactive)
same,GI50,MDA-MB-435,27 µM (inactive)
same,GI50,SK-MEL-28,18.2 µM (inactive)
same,GI50,OVCAR-5,0.0391 µM (active)
same,GI50,SNB-75,18.2 µM (inactive)
same,GI50,NCI-H460,6.75 µM (inactive)
same,GI50,SN12C,24.2 µM (inactive)
same,GI50,NCI-H23,27.2 µM (inactive)
same,GI50,CAKI-1,13.3 µM (inactive)
same,GI50,SK-MEL-5,19.3 µM (inactive)
same,GI50,ACHN,14.3 µM (inactive)
same,GI50,BT-549,16.4 µM (inactive)
same,GI50,PC-3,5.06 µM (inactive)
same,GI50,Malme-3M,18.9 µM (inactive)
same,GI50,HOP-62,10.4 µM (inactive)
same,GI50,SF-295,13.6 µM (inactive)
same,GI50,UO-31,15 µM (inactive)
same,GI50,SW-620,20 µM (inactive)
same,GI50,COLO 205,20.6 µM (inactive)
same,GI50,MDA-MB-231,12.5 µM (inactive)
same,GI50,M14,14.4 µM (inactive)
same,GI50,T47D,10.7 µM (inactive)
same,GI50,CCRF-CEM,17 µM (inactive)
same,GI50,MOLT-4,19.3 µM (inactive)
same,GI50,HCC 2998,7.31 µM (inactive)
same,GI50,HT-29,11.8 µM (inactive)
same,GI50,HOP-92,10.1 µM (inactive)
same,GI50,UACC-257,20.1 µM (inactive)
same,GI50,786-0,10 µM (inactive)
same,GI50,SF-539,12.3 µM (inactive)
same,GI50,MCF7,26.7 µM (inactive)
same,GI50,EKVX,5.22 µM (inactive)
same,GI50,NCI-H522,14 µM (inactive)
same,GI50,Hs-578T,5.07 µM (inactive)
same,GI50,OVCAR-3,6.64 µM (inactive)
same,GI50,OVCAR-8,15.7 µM (inactive)
same,GI50,DU-145,10.5 µM (inactive)
same,GI50,NCI/ADR-RES,9.51 µM (inactive)
same,GI50,IGROV-1,19.6 µM (inactive)
same,GI50,KM12,20.3 µM (inactive)
same,GI50,HL-60,1.66 µM (inactive)
